Results as given in article PMC5874716, “Antimicrobial Peptides for Topical Treatment of Osteomyelitis and Implant-Related Infections: Study in the Spongy Bone” (Pharmaceuticals, 2018).
Structures can show the parent of a compound that is named as a salt.

Key:
[1] = test system: C. tropicalis ATCC 750; assay: Biofilm formation on bone cement (Palacos r) model implants in infected femur head; parameters: species or system Candida tropicalis; settings: cements implanted inside infected holes; 2 days; single experiment, / = two implants
From the text: (§1) The poly(methyl methacrylate)-based bone cement with or without AMPs was implanted either inside infected holes or inside non-infected holes. In the latter case, the microbes infiltrated towards the implant from a hole made between them at roughly equal distance from each (Figure 3). This would simulate the authentic situation in which the pathogens can infect an orthopaedic implant by spreading through the bloodstream or contiguously from areas of infection. We evaluated the experiments on the basis of the amounts of microbes released from the biofilms supposedly formed on the surfaces of the implants that were removed from the infected bone samples.
(§2) The bone samples with bored holes inside were prepared and handled as above. The bone cement (Palacos®r, Hereaus Medical GmbH, Wehrheim, Germany) with AMP incorporated was prepared by swift and thorough mixing of the polymer powder component (poly-methylacrylate, methyl methacrylate, 125 mg) and AMP (10 mg) or antibiotic (10 mg) with the liquid monomer (methyl methacrylate, N,N-dimethyl-p-toluidine, hydroquinone and colorant E141, 70 μL). The resulting elastic paste was pressed using a 2 mL plastic syringe into two bored holes, where it polymerized and solidified. The paste without peptide for filling of the remaining two holes was prepared similarly by mixing the powder component (125 mg) and liquid component (68 μL). […]

[2] = test system: E. faecalis clinical isolate (Motol); assay: microbe, parasite or virus in culture; format: cell-based; settings: Enterococcus faecalis, read-out: Antimicrobial Activity MIC, E. f. b
Experimental: (§3) Femur heads (ca. 70 pieces) taken from patients during hip replacement surgery were periodically purchased in the period between 2014–2017 as discarded from the bone tissue bank at University Hospital in Motol, Prague, Czech Republic. The reason for the replacements by artificial prosthesis was the worn out cartilage on the surface of their heads. Bone samples were stored at −80 °C under standard conditions of certified tissue banks. In the laboratory, they were kept at +5 °C overnight and then at room temperature for several hours before they could be used for the experiments. The experiments with this material were approved by the Ethics Committee for Multi-Centric Clinical Trials of the University Hospital Motol, Reference No: EK-655/15. Methicillin-resistant S. aureus (MRSA 6271) ATCC 43300 and P. aeruginosa (5482) ATCC 27853 were purchased from the Czech National Collection of Type Cultures, National Institute of Public Health, Prague, Czech Republic. Methicillin-resistant S. aureus (MRSA (L)) and P. aeruginosa (L) were obtained as multi-resistant clinical isolates from Liberec Regional Hospital, Liberec, Czech Republic. Methicillin-resistant S. aureus (MRSA (M)), E. faecalis and S. epidermidis were obtained as clinical isolates from University Hospital in Motol, Prague. Candida albicans (F7-39/IDE99) came from the mycological collection of the Faculty of Medicine, Palacky University, Olomouc, Czech Republic. C. albicans ATCC MYA-2876, C. tropicalis ATCC 750 and C. glabrata DSY565 were kindly provided by Dr. Hana Sychrová from the Institute of Physiology, Academy of Sciences of the Czech Republic, Prague. Vancomycin hydrochloride, gentamicin sulfate, ceftriaxone disodium salt, amphotericin B, fluconazole, and clotrimazole were obtained from Sigma-Aldrich, Prague, Czech Republic.
(§4) MIC values for peptides were established by observing growth of treated bacteria in HONEYCOMB 100-well microtiter plates (Helsinki, Finland) using a Bioscreen C instrument (Oy Growth Curves, Helsinki, Finland) as previously described. Haemolytic activity of peptides expressed as the concentration of a peptide required for lysis of 50% of human erythrocytes in the assay (LC50) was measured using a Tecan infinite M200 PRO reader (Tecan Austria GmbH, Grödig, Austria). Blood samples for determining haemolytic activity were obtained from healthy volunteers.

[3] = test system: S. epidermidis clinical isolate (Motol); assay: microbe, parasite or virus in culture; format: cell-based; settings: Staphylococcus epidermidis, read-out: Antimicrobial Activity MIC, S. e. b
Experimental: as §3, §4

[4] = test system: MRSA clinical isolate from Liberec Regional Hospital (MRSA (L)); assay: microbe, parasite or virus in culture; format: cell-based; settings: Staphylococcus aureus, MRSA, read-out: Antimicrobial Activity MIC, MRSA a
Experimental: as §3, §4

[5] = test system: P. aeruginosa (5482) ATCC 27853; assay: microbe, parasite or virus in culture; format: cell-based; settings: Pseudomonas aeruginosa, ATCC27853, read-out: Antimicrobial Activity MIC, P. a. 5482
Experimental: as §3, §4

[6] = test system: MRSA clinical isolate from University Hospital in Motol (MRSA (M)); assay: microbe, parasite or virus in culture; format: cell-based; settings: Staphylococcus aureus, MRSA, read-out: Antimicrobial Activity MIC, MRSA b
Experimental: as §3, §4

[7] = test system: MRSA 6271 (ATCC 43300); assay: microbe, parasite or virus in culture; format: cell-based; settings: Staphylococcus aureus, read-out: Antimicrobial Activity MIC, MRSA 6271
Experimental: as §3, §4

[8] = test system: P. aeruginosa clinical isolate from Liberec Regional Hospital; assay: microbe, parasite or virus in culture; format: cell-based; settings: Pseudomonas aeruginosa, read-out: Antimicrobial Activity MIC, P. a. a
Experimental: as §3, §4

[9] = test system: E. faecalis; assay: Biofilm formation on bone cement (Palacos r) model implants in infected femur head; parameters: species or system Enterococcus faecalis; settings: cements implanted inside infected holes; 2 days; single experiment
From the text: as §1, §2

[10] = test system: MRSA clinical isolate from University Hospital in Motol (MRSA (M)); assay: as above; parameters: species or system Staphylococcus aureus; settings: cements implanted inside infected holes; Palacos r with peptide or antibiotic; 2 days; single experiment, / = two implants
From the text: as §1, §2

Row | SMILES | CFU/Implant, * C. tropicalis [1] | MIC [2] | MIC [3] | MIC [4] | MIC [5] | MIC [6] | MIC [7] | MIC [8] | CFU/Implant, *E. f. [9] | CFU/Implant, *MRSA b [10]
1 | C[C@@H]1[C@H](O)[C@@H](C)/C=C/C=C/C=C/C=C/C=C/C=C/C=C/[C@H](O[C@@H]2O[C@H](C)[C@@H](O)[C@H](N)[C@@H]2O)C[C@@H]2O[C@](O)(C[C@@H](O)C[C@@H](O)[C@H](O)CC[C@@H](O)C[C@@H](O)CC(=O)O[C@H]1C)C[C@H](O)[C@H]2C(=O)O [Amphotericin B, amphotericin B] | 1.3 × 10^6 CFU/implant |  |  |  |  |  |  |  |  | 
2 | CN[C@H](CC(C)C)C(=O)N[C@H]1C(=O)N[C@@H](CC(N)=O)C(=O)N[C@H]2C(=O)N[C@H]3C(=O)N[C@H](C(=O)N[C@H](C(=O)O)c4cc(O)cc(O)c4-c4cc3ccc4O)[C@H](O)c3ccc(c(Cl)c3)Oc3cc2cc(c3O[C@@H]2O[C@H](CO)[C@@H](O)[C@H](O)[C@H]2O[C@H]2C[C@](C)(N)[C@H](O)[C@H](C)O2)Oc2ccc(cc2Cl)[C@H]1O [Vancomycin, Vancomycin hydrochloride, reference compound] |  | 1.3 µM | 1.5 µM | 1.1 µM | > 200 µM | 1.1 µM | 0.9 µM | > 320 µM | 4.0 × 10^6 CFU/implant | 4.0 × 10^6 CFU/implant
